Test results as given in patent publication US20020127268A1, “Anion regulator for ruminants” (AJINOMOTO CO., INC., priority 1997, published 2002).

Tested on: Holstein calves
Assay: Test on anion regulating activity (urinary pH)
Format: in vivo
Conditions: Table 3 and FIG. 1 summary
Description: If a DCAD value is positive, the urinary pH is 7-8.5. It is also known that if an anion regulator is added, and as a result the feed is changed to show a negative DCAD value, the urinary pH of animals to which such feed has been fed is reduced and will show a value of 6.5-5.5 when the anion regulator has been added in an appropriate amount. […] (1995), Sep., p.634 (Japanese version).
Experiments were conducted using six(6) Holstein calves with a body weight of approximately 200 kg. They were divided into three groups, two calves in a group. The groups were each fed with one of the following three(3) types of experimental feeds. Feed consisting of […] concentrated feed (“Beef-fast”, ex Itochu Feed Co.), 550 g of timothy-hay and 550 g of alfalfa hay cubes was fed, twice a day, at 9 and 16 o'clock, for one week before the start of the experiment, for adaptation.
These three(3) types of mixed feeds were separately supplied to each group at 9 and 16 o'clock on the same day and at 9 o'clock on the next day. After 10 minutes, each mixed feed was removed, and subsequently, a mixture of 900 g of concentrated feed, 500 g of timothy-hay and 550 g of alfalfa hay cubes, was supplied instead.
In the table and figure, for example, terms Lys HCl 1 and Lys HCl 2 indicate respectively the two calves in the first group which was fed with Lys HCl (Lys HCl-feeded group).

SMILES	Effectiveness as anion regulator	Reduction of urinary pH compared with NH4Cl
Cl.NCCCC[C@H](N)C(=O)O [L-lysine hydrochloride, L-lysine monohydrochloride]	effective as anion regulators	reduce urinary pH better than NH4Cl
Cl.N=C(N)NCCC[C@H](N)C(=O)O [L-arginine hydrochloride, L-arginine monohydrochloride]	effective as anion regulators	reduce urinary pH better than NH4Cl
